Source: paper PMC12169608, “Peptidomimetic Phenoxymethyl Ketone Warheads as Potent Dual-Mode Inhibitors against SARS-CoV‑2 M^pro and Cathepsin” (Journal of Medicinal Chemistry, 2025)
Like-named read-outs stand apart in the source and are kept apart here.

Columns and labels:
SARS-CoV-2 M^pro = SARS-CoV-2 M^pro (Severe acute respiratory syndrome coronavirus 2, UniProt P0DTD1); experiment: biochemical; format: biochemical; conditions: read-out: M^pro biochemical assay pIC50 (converted)
SARS-CoV-2 = experiment: microbe, parasite or virus in culture; format: cell-based
SARS-CoV = experiment: microbe, parasite or virus in culture; format: cell-based; conditions: Severe acute respiratory syndrome coronavirus, read-out: pEC50 (SARS-CoV CPE reduction assay) (converted)
MERS-CoV = experiment: microbe, parasite or virus in culture; format: cell-based; conditions: Middle East respiratory syndrome-related coronavirus, Huh-7, read-out: pEC50 (MERS-CoV CPE reduction assay) (converted)
Cathepsin D = target: T1, Cathepsin D (Homo sapiens, UniProt P07339); experiment: Protease panel: Cathepsin D; format: biochemical
T1 construct: Human liver; tissue Eurofins Discovery (assay service); host or cells: human liver

Neutrophil Elastase 2 = target: T2, Neutrophil Elastase 2 (Homo sapiens, UniProt P08246); experiment: Protease panel: Neutrophil Elastase 2; format: biochemical
T2 construct: neutrophils; tissue Eurofins Discovery (assay service); host or cells: human neutrophils
T2 sequence (P08246 30-267): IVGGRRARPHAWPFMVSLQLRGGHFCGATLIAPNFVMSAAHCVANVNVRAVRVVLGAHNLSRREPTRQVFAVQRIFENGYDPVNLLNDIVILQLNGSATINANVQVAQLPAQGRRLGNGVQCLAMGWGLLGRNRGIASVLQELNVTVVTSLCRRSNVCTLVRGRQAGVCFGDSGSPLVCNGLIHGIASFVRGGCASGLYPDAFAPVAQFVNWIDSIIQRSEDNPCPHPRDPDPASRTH

[1] = microsomes, 10 µM, pH 7.4
in vitro [2] = conditions: hamster, hepatocytes; for hepatocyte CLint at 2 h, 4 µM: CLint (hamster hepatocytes + ritonavir 4:1); for hepatocyte CLint at 2 h, 2 µM: CLint (hamster hepatocytes)
in vitro [3] = conditions: mouse, microsomes, pH 7.4
[4] = Mouse liver microsomal stability; conditions: microsomes, pH 7.4
[5] = target: mouse cathepsin B (mCTSB) (Mus musculus, UniProt P10605); experiment: mCTSB biochemical assay; conditions: read-out: pIC50 (mouse CTSB) (converted)
[6] = Severe acute respiratory syndrome coronavirus 2, Vero C1008, read-out: SARS-CoV-2 CPE reduction assay pEC50 (converted)
[7] = % remaining at 120 min (hamster hepatocytes, compound/ritonavir 1:1)
[8] = % remaining at 120 min (hamster hepatocytes, compound/ritonavir 2:1)
[9] = CLint (hamster hepatocytes, compound/ritonavir 1:1)
[10] = CLint (hamster hepatocytes, compound/ritonavir 2:1)
[11] = t1/2 (hamster hepatocytes, compound/ritonavir 1:1)
[12] = t1/2 (hamster hepatocytes, compound/ritonavir 2:1)

T1 sequence (P07339 65-412): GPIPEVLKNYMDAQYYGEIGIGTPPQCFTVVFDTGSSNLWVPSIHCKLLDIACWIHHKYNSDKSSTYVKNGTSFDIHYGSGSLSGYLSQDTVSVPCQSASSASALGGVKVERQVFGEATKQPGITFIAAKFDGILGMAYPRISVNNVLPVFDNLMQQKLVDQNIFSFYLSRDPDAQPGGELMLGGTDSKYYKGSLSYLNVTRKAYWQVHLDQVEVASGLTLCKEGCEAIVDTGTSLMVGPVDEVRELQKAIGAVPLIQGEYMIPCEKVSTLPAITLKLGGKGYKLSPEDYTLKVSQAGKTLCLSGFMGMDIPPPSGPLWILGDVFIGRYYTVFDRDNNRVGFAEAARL
mouse cathepsin B (mCTSB), sequence (P10605 80-339): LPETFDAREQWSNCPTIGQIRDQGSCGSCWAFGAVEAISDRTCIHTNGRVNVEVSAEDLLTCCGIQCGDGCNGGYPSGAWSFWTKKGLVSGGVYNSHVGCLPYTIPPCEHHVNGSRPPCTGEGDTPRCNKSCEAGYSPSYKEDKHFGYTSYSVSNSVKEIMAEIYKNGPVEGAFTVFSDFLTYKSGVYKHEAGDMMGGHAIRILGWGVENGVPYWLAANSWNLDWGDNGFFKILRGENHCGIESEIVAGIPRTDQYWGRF

| Compound | EC50 (SARS-CoV-2; [6]) [nM] | inhibition at 10 µM (Cathepsin D) [%] | inhibition at 10 µM (Neutrophil Elastase 2) [%] | remaining at 2 h, 1 µM (in vitro [2]; [7]) [%] | remaining at 2 h, 1 µM (in vitro [2]; [8]) [%] | hepatocyte CLint at 2 h, 4 µM (in vitro [2]) [µL/min/1e6 cells] | hepatocyte CLint at 2 h, 2 µM (in vitro [2]) [µL/min/1e6 cells] | hepatocyte CLint at 1 µM (in vitro [2]; [9]) [µL/min/1e6 cells] | hepatocyte CLint at 1 µM (in vitro [2]; [10]) [µL/min/1e6 cells] | half-life at 1 µM (in vitro [2]; [11]) [min] | half-life at 1 µM (in vitro [2]; [12]) [min] | other results |
| --- | --- | --- | --- | --- | --- | --- | --- | --- | --- | --- | --- | --- |
| COc1cccc2[nH]c(C(=O)N[C@@H](Cc3cccc(F)c3)C(=O)N[C@@H](C[C@@H]3CCNC3=O)C(=O)COc3c(F)c(F)c(CO)c(F)c3F)cc12 [compound 1, N-((S)-3-(3-Fluorophenyl)-1-oxo-1-(((S)-3-oxo-1-((S)-2-oxopyrrolidin-3-yl)-4-(2,3,5,6-tetrafluoro-4-(hydroxymethyl)phenoxy)butan-2-yl)amino)propan-2-yl)-4-methoxy-1H-indole-2-carboxamide] | 129 | 8 | 2 | 2.51 | 0.56 | 77.1 | 87.6 | 31.4 | 48.1 | 22.1 | 14.4 | IC50 (SARS-CoV-2 M^pro): 2.45 nM; EC50 (SARS-CoV-2; Severe acute respiratory syndrome coronavirus 2, Vero C1008, read-out: EC50 (CPE)): 130 nM; EC50 (SARS-CoV): 302 nM; EC50 (MERS-CoV): 5.25 nM; Peak area (%) by LCMS, mouse liver microsomal stability assay of 1 ([1]; 0 h): 100%; Peak area (%) by LCMS, mouse liver microsomal stability assay of 1 ([1]; 5 min): 86.9%; Peak area (%) by LCMS, mouse liver microsomal stability assay of 1 ([1]; 0.25 h): 67.9%; Peak area (%) by LCMS, mouse liver microsomal stability assay of 1 ([1]; 0.5 h): 48.7%; Peak area (%) by LCMS, mouse liver microsomal stability assay of 1 ([1]; 0.75 h): 35.8%; Peak area (%) by LCMS, mouse liver microsomal stability assay of 1 ([1]; 1 h): 32.6%; half-life at 2 h, 4 µM (in vitro [2]; t1/2 (hamster hepatocytes + ritonavir 4:1)): 9 min; microsomal CLint at 1 µM (in vitro [3]): 586 µL/min/mg; remaining at 1 h, 1 µM (in vitro [3]): 0%; half-life at 1 µM [4]: 1.18 min |
| CC(C)(O)c1c(F)c(F)c(OCC(=O)[C@H](C[C@@H]2CCNC2=O)NC(=O)[C@@H]2[C@@H]3[C@H](CN2C(=O)[C@@H](NC(=O)C(F)(F)F)C(C)(C)C)C3(C)C)c(F)c1F [compound 14, (1R,2S,5S)-3-((S)-3,3-Dimethyl-2-(2,2,2-trifluoroacetamido)butanoyl)-6,6-dimethyl-N-((S)-3-oxo-1-((S)-2-oxopyrrolidin-3-yl)-4-(2,3,5,6-tetrafluoro-4-(2-hydroxypropan-2-yl)phenoxy)butan-2-yl)-3-azabicyclo[3.1.0]hexane-2-carboxamide] | 39.8 | -23 | 4 | 28.8 | 4.42 | 44.7 | 62.1 | 9.3 | 25.4 | 74.5 | 27.2 | IC50 [5]: 5010 nM |
